Source: publication PMC5660261 (Frontiers in Pharmacology, 2017)

What was measured:
human CB2R [1] = biological target: T1, human CB2R (Homo sapiens, UniProt P34972); assay: Forskolin-induced intracellular cAMP determination in HEK-293T cells expressing CB2R; type: cell-based
T1 construct: host or cells: HEK-293T, transient transfection, living cells

human CB2R [2] = biological target: T1, human CB2R; assay: HTRF (Tag-lite) competition binding of red CB2R ligand in living HEK-293T cells expressing SNAP-CB2R; settings: 100 nM red CB2R ligand, low nanomolar CBD concentrations
human GPR55 = biological target: T2, human GPR55 (Homo sapiens, UniProt Q9Y2T6); assay: Forskolin-induced intracellular cAMP determination in HEK-293T cells expressing GPR55; type: cell-based
T2 construct: expressed in transfected cells; host or cells: HEK-293T, transient transfection
T2 sequence (Q9Y2T6 whole entry): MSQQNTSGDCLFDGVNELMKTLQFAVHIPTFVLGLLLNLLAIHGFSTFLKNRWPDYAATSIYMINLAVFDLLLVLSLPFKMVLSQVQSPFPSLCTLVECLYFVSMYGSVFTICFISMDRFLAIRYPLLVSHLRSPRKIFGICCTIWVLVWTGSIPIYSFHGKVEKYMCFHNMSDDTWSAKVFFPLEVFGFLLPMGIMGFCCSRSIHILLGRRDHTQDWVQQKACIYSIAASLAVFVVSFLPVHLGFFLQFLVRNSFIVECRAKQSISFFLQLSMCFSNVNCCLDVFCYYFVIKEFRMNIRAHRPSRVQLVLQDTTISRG
Experimental: Two hours before initiating the experiment, growth medium was replaced by serum-free DMEM. Then, HEK-293T cells transiently expressing CB2R or GPR55 were detached and resuspended in growing medium containing 50 μM zardaverine and plated in 384-well microplates (2,500 cells/well), pretreated (15 min) with the corresponding antagonists—or vehicle—and stimulated with agonists (15 min) before adding 0.5 μM forskolin or vehicle. Readings were performed after 15 min of incubation at 25°C. HTRF measures were performed using the Lance Ultra cAMP kit (PerkinElmer, Waltham, MA, United States). Fluorescence at 665 nm was analyzed on a PHERAstar Flagship microplate reader equipped with an HTRF optical module (BMG Lab Technologies, Offenburg, Germany).

human CB2R [3] = biological target: T1, human CB2R; assay: HTRF (Tag-lite) saturation binding of red CB2R ligand in living HEK-293T cells expressing SNAP-CB2R

T1 sequence (P34972 whole entry): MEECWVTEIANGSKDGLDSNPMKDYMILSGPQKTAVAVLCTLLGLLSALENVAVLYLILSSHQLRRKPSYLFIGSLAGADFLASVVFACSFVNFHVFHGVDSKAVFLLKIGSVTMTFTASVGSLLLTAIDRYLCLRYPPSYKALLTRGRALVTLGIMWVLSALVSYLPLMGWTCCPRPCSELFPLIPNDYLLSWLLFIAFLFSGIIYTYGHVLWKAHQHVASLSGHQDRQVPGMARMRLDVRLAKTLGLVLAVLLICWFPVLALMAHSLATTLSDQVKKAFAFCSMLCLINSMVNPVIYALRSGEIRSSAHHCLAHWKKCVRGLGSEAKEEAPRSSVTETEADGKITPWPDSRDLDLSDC

Question: How did the “G-protein-coupled signal (cAMP) of compound alone” value (human CB2R [1]; concentration range 1–1,000 nM, no agonist, HEK-293T cells expressing human CB2R) turn out when `C=C(C)[C@@H]1CCC(C)=C[C@H]1c1c(O)cc(CCCCC)cc1O` [CBD, cannabidiol] was run?
Answer: The value was “did not significantly engage any G-protein-coupled signal”.

Question: And the “reduction of fluorescent agonist binding” value (human CB2R [2])?
Answer: The value was “circa 25%”.

Question: What about the “cAMP response to combined treatment with CBD and JWH133” value (human GPR55; 100 nM JWH133, HEK-293T transiently transfected with GPR55) of the same compound?
Answer: The value was “not significantly different than that achieved by CBD alone”.

Question: And the “cAMP signal of compound alone” value (human GPR55; HEK-293T cells expressing human GPR55)?
Answer: The value was “results were similar to those in cells expressing the CB2R”.

Question: `CCCC(C)(C)c1ccc2c(c1)OC(C)(C)[C@@H]1CC=C(C)C[C@@H]21` [JWH133] was tested. Which “Agonist-induced reduction in cAMP” value (human CB2R [1]; 100 nM JWH133, data given in percentage of the 500 nM forskolin-induced cAMP concentration) did it give?
Answer: The value was 31 ± 4.

Question: Which “effect on maximum binding (Bmax) of red CB2R ligand” value (human CB2R [3]) does the source give for SR144528 here?
Answer: The value was “reduced Bmax values”.
